Measurements: patent US10336762B2 (priority 2017, dated 2019)
Read-outs that look alike come from different tables or passages of the source.

Legend:
IRAK4 enzyme = IRAK4 enzyme (Homo sapiens (Human), UniProt Q9NWZ3); assay: biochemical; assay type: biochemical; conditions: IRAK4 enzyme, 500 μM ATP
TNFα = assay: cells; assay type: cell-based, human; conditions: LPS-stimulated human monocytes, read-out: EC50 TNF
[1] = Homo sapiens, Monocyte, TNFα content
[2] = Homo sapiens, Monocyte, TNFα by TR-FRET

IRAK4 enzyme, sequence (Q9NWZ3 whole entry): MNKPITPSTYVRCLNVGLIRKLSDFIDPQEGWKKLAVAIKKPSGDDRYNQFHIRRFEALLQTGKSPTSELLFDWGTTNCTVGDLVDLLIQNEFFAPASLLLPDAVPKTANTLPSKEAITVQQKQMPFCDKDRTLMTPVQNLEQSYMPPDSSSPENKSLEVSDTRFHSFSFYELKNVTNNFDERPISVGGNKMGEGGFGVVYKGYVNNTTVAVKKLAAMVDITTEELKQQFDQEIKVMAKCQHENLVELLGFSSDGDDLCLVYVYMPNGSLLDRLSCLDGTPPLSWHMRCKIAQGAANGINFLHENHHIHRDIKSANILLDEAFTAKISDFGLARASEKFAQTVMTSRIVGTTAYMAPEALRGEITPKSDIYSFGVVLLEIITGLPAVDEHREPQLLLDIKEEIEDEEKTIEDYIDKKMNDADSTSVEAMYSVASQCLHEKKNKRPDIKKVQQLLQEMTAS

Row | SMILES | IC50 (IRAK4 enzyme; TR-FRET) [nM] | EC50 (TNFα; [1]) [nM] | IC50 (IRAK4 enzyme; TR-FRET (HTRF)) [nM] | EC50 (TNFα; [2]) [nM] | EC50 (TNFα; TNFα content) [nM]
1 | Cc1ccc(Nc2cc(-c3ccc4cc(C#N)cnn34)ncc2C(=O)NC[C@@H](F)C(C)(C)O)cn1 [Example 184, (R)-6-(3-cyanopyrrolo[1,2-b]pyridazin-7-yl)-N-(2-fluoro-3-hydroxy-3-methylbutyl)-4-((6-methylpyridin-3-yl)amino)nicotinamide] | < 1 | 48 | – | – | –
2 | CC(C)Nc1cc(-c2ccc3cc(C#N)cnn23)ncc1C(=O)NNCC(C)(C)O [Example 69, 6-(3-cyanopyrrolo[1,2-b]pyridazin-7-yl)-N′-(2-hydroxy-2-methylpropyl)-4-(isopropylamino) nicotinohydrazide] | 7 | 515 | – | – | –
3 | CC(C)(O)[C@H](F)CNC(=O)c1cnc(-c2ccc3cc(C#N)cnn23)cc1NC12CCC(C(=O)NC34CC(C3)C4)(CC1)CC2 [Example 410, (R)-4-((4-(bicyclo[1.1.1]pentan-1-ylcarbamoyl)bicyclo[2.2.2]octan-1-yl)amino)-6-(3-cyano-pyrrolo[1,2-b]pyridazin-7-yl)-N-(2-fluoro-3-hydroxy-3-methylbutyl) nicotinamide] | – | 50 | 2 | – | –
4 | COC(=O)NC(C)(C)CCCNc1cc(-c2ccc3cc(C#N)cnn23)ncc1C(=O)NC[C@@H](F)C(C)(C)O [Example 726, (R)-methyl (5-((2-(3-cyanopyrrolo[1,2-b]pyridazin-7-yl)-5-((2-fluoro-3-hydroxy-3-methylbutyl)carbamoyl)pyridin-4-yl)amino)-2-methylpentan-2-yl) carbamate] | – | 169 | 4 | – | –
5 | CC(C)Nc1cc(-c2ccc3cc(C#N)cnn23)ncc1C(=O)NC1CCN(C2COC2)CC1 [Example 86, 6-(3-cyanopyrrolo[1,2-b]pyridazin-7-yl)-4-(isopropylamino)-N-(1-(oxetan-3-yl)piperidin-4-yl) nicotinamide] | 4 | 321 | – | – | –
6 | CC(C)(O)[C@H](F)CNC(=O)c1cnc(-c2ccc3cc(C#N)cnn23)cc1Nc1cnn([C@H]2CNC[C@H]2F)c1 [Example 914, 6-(3-cyanopyrrolo[1,2-b]pyridazin-7-yl)-N-((R)-2-fluoro-3-hydroxy-3-methylbutyl)-4-((1-((3S,4R)-4-fluoropyrrolidin-3-yl)-1H-pyrazol-4-yl)amino)nicotinamide] | < 1 | – | – | 13 | –
7 | CC(C)(O)[C@H](F)CNC(=O)c1cnc(-c2ccc3cc(C#N)cnn23)cc1Nc1cnccn1 [Example 185, (R)-6-(3-cyanopyrrolo[1,2-b]pyridazin-7-yl)-N-(2-fluoro-3-hydroxy-3-methylbutyl)-4-(pyrazin-2-ylamino)nicotinamide] | < 1 | 46 | – | – | –
8 | CC(C)(O)[C@H](F)CNC(=O)c1cnc(-c2ccc3cc(C#N)cnn23)cc1N[C@H]1CC[C@@H](NC(=O)C(F)(F)F)CC1 [Example 319, 6-(3-cyanopyrrolo[1,2-b]pyridazin-7-yl)-N-((R)-2-fluoro-3-hydroxy-3-methyl-butyl)-4-(((1s,4S)-4-(2,2,2-trifluoroacetamido)cyclo-hexyl)amino)nicotinamide] | 19 | 2220 | – | – | –
9 | COC(=O)NC1(c2ccc(Nc3cc(-c4ccc5cc(C#N)cnn45)ncc3C(=O)N[C@H]3CC[C@H](NC(=O)C4CC4)CC3)cc2)CC1 [Example 866, methyl (1-(4-((2-(3-cyano-pyrrolo[1,2-b]pyridazin-7-yl)-5-(((1r,4r)-4-(cyclopropanecarboxamido)cyclohexyl)carbamoyl)pyridin-4-yl)amino)phenyl)cyclopropyl)carbamate] | 1 | – | – | 37 | –
10 | CC(C)(O)[C@H](F)CNC(=O)c1cnc(-c2ccc3cc(C#N)cnn23)cc1N[C@H]1C[C@@H]2CN(S(C)(=O)=O)C[C@@H]2C1 [Example 250, 6-(3-cyanopyrrolo[1,2-b]pyridazin-7-yl)-N-((R)-2-fluoro-3-hydroxy-3-methylbutyl)-4-(((3aR,5s,6aS)-2-(methylsulfonyl)octa-hydrocyclopenta[c]pyrrol-5-yl)amino) nicotinamide] | 1 | 37 | – | – | –
11 | COC(=O)NCCCC(C)(C)Nc1cc(-c2ccc3cc(C#N)cnn23)ncc1C(=O)NC[C@@H](F)C(C)(C)O [Example 720, (R)-methyl (4-((2-(3-cyano-pyrrolo[1,2-b]pyridazin-7-yl)-5-((2-fluoro-3-hydroxy-3-methylbutyl)carbamoyl)pyridin-4-yl)amino)-4-methylpentyl)carbamate] | – | 243 | 2 | – | –
12 | CNC(=O)O[C@H]1C[C@@H](Nc2cc(-c3ccc4cc(C#N)cnn34)ncc2C(=O)NC[C@@H](F)C(C)(C)O)C1 [Example 351, (1S,3S)-3-((2-(3-cyanopyrrolo[1,2-b]pyridazin-7-yl)-5-(((R)-2-fluoro-3-hydroxy-3-methylbutyl)carbamoyl)pyridin-4-yl)amino)cyclobutyl methylcarbamate] | 2 | 120 | – | – | –
13 | CC(C)(O)[C@H](F)CNC(=O)c1cnc(-c2ccc3cc(C#N)cnn23)cc1NC1C2CCC1CNC2 (single isomer, unassigned) [Example 28] | < 1 | – | – | – | 109
14 | [2H]C([2H])([2H])NC(=O)c1cnc(-c2ccc3cc(C#N)cnn23)cc1NC12CCC(O)(CC1)CC2 [Example 358, 6-(3-cyanopyrrolo[1,2-b]pyridazin-7-yl)-4-((4-hydroxybicyclo[2.2.2]octan-1-yl)amino)-N-(methyl-d3)nicotinamide] | 3 | 122 | – | – | –
15 | COc1cc(Nc2cc(-c3ccc4cc(C#N)cnn34)ncc2C(=O)NC[C@@H](F)C(C)(C)O)ccc1C(N)=O [Example 604, (R)-4-((4-carbamoyl-3-methoxyphenyl)amino)-6-(3-cyanopyrrolo[1,2-b]pyridazin-7-yl)-N-(2-fluoro-3-hydroxy-3-methylbutyl)nicotinamide] | – | 283 | 7 | – | –
16 | CC(C)(O)[C@H](F)CNC(=O)c1cnc(-c2ccc3cc(C#N)cnn23)cc1N[C@H]1CCC[C@@H](O)C1 [Example 2, 6-(3-cyanopyrrolo[1,2-b]pyridazin-7-yl)-N-((R)-2-fluoro-3-hydroxy-3-methylbutyl)-4-(((1S,3R)-3-hydroxycyclohexyl)amino)nicotinamide] | < 1 | 9 | – | – | –
17 | CC(C)(O)[C@H](F)CNC(=O)c1cnc(-c2ccc3cc(C#N)cnn23)cc1NC1CC2(C1)CC(F)(F)C2 [Example 749, (R)-6-(3-cyanopyrrolo[1,2-b]pyridazin-7-yl)-4-((6,6-difluorospiro[3.3]heptan-2-yl)amino)-N-(2-fluoro-3-hydroxy-3-methylbutyl) nicotinamide] | – | 52 | < 1 | – | –
18 | CC(C)(O)[C@H](F)CNC(=O)c1cnc(-c2ccc3cc(C#N)cnn23)cc1Nc1ccc2c(c1)C1(CC1)C(=O)N2 [Example 665, (R)-6-(3-cyanopyrrolo[1,2-b]pyridazin-7-yl)-N-(2-fluoro-3-hydroxy-3-methylbutyl)-4-((2′-oxospiro[cyclopropane-1,3′-indolin]-5′-yl)amino)nicotinamide] | – | 299 | 8 | – | –
19 | Cn1cnc(CNC(=O)c2cnc(-c3ccc4cc(C#N)cnn34)cc2NC23CCC(O)(CC2)CC3)c1 [Example 929, 6-(3-cyanopyrrolo[1,2-b]pyridazin-7-yl)-4-((4-hydroxybicyclo[2.2.2]octan-1-yl)amino)-N-((1-methyl-1H-imidazol-4-yl)methyl)nicotinamide] | 1 | – | – | 126 | –
20 | CNC(=O)c1cnc(-c2ccc3cc(C#N)cnn23)cc1NC12CCC(C(=O)NC)(CC1)C2 [Example 468, 6-(3-cyanopyrrolo[1,2-b]pyridazin-7-yl)-N-methyl-4-((4-(methylcarbamoyl)bicyclo[2.2.1]heptan-1-yl)amino)nicotinamide] | – | 112 | 1 | – | –
21 | CC(C)(O)[C@H](F)CNC(=O)c1cnc(-c2ccc3cc(C#N)cnn23)cc1Nc1ccc2cc[nH]c2c1 [Example 578, (R)-4-((1H-indol-6-yl)amino)-6-(3-cyano-pyrrolo[1,2-b]pyridazin-7-yl)-N-(2-fluoro-3-hydroxy-3-methylbutyl) nicotinamide] | – | 14 | 2 | – | –
22 | N#Cc1cnn2c(-c3cc(NC45CCC(O)(CC4)CC5)c(C(=O)NC4CCC(NC(=O)C5CC5)CC4)cn3)ccc2c1 (stereo not shown) [Example 506, 6-(3-cyanopyrrolo[1,2-b]pyridazin-7-yl)-N-((1r,4r)-4-(cyclopropane-carboxamido)cyclohexyl)-4-((4-hydroxybicyclo[2.2.2]octan-1-yl)amino) nicotinamide] | – | 50 | < 1 | – | –
23 | CNC(=O)c1cnc(-c2ccc3cc(C#N)cnn23)cc1N[C@@H]1CC[C@H](C(=O)NC)C1 [Example 469, 6-(3-cyanopyrrolo[1,2-b]pyridazin-7-yl)-N-methyl-4-(((1R,3S)-3-(methylcarbamoyl)cyclo-pentyl)amino)nicotinamide] | – | 1100 | 41 | – | –
24 | N#CCCNC(=O)c1cnc(-c2ccc3cc(C#N)cnn23)cc1NC12CCC(O)(CC1)CC2 [Example 352, N-(2-cyanoethyl)-6-(3-cyanopyrrolo[1,2-b]pyridazin-7-yl)-4-((4-hydroxybicyclo[2.2.2]octan-1-yl)amino) nicotinamide] | 1 | 76 | – | – | –
25 | COc1cc(Nc2cc(-c3ccc4cc(C#N)cnn34)ncc2C(=O)NC[C@@H](F)C(C)(C)O)ccc1N1CCOCC1 [Example 685, (R)-6-(3-cyanopyrrolo[1,2-b]pyridazin-7-yl)-N-(2-fluoro-3-hydroxy-3-methylbutyl)-4-((3-methoxy-4-morpholino-phenyl)amino)nicotinamide] | – | 398 | 10 | – | –
26 | CC(C)(O)[C@H](F)CNC(=O)c1cnc(-c2ccc3cc(C#N)cnn23)cc1-n1cc(-c2cnc(N)cn2)cn1 [Example 936, (R)-4-(4-(5-aminopyrazin-2-yl)-1H-pyrazol-1-yl)-6-(3-cyanopyrrolo[1,2-b]pyridazin-7-yl)-N-(2-fluoro-3-hydroxy-3-methylbutyl) nicotinamide] | 147 | – | – | > 10000 | –
